Results as given in patent publication US10681909B2, “Herbicidal triazoles” (FMC Corporation, priority 2014, dated 2020).

Tests used:
corn = experiment: Test A postemergence; format: in vivo, Zea mays; settings: Zea mays, post-emergence, 240 h, 0 to 100 scale (0 no effect, 100 complete control), approx. 10 d; for Corn plant response rating (crop injury, 0 = no effect, 100 = complete kill) at 125 g/ha: 125 g ai/ha; for Corn plant response rating (crop injury, 0 = no effect, 100 = complete kill) at 500 g/ha: 500 g ai/ha
Procedure, shortened: (§1)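 For preemergence, seeds were sown in a loam soil-sand blend and given a directed soil spray of test chemical in a non-phytotoxic solvent mixture with surfactant. For postemergence, plants in pots of the same blend were sprayed with the same formulation at the one- to two-leaf stage, 2 to 10 cm tall.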

oat, wild = experiment: Test C postemergence; format: in vivo, Avena fatua
Source text: (§2) Seeds of plant species selected from blackgrass (Alopecurus myosuroides), ryegrass, Italian (Italian ryegrass, Lolium multiflorum), wheat (winter wheat, Triticum aestivum), galium (catchweed bedstraw, Galium aparine), corn (Zea mays), crabgrass, large (large crabgrass, Digitaria sanguinalis), foxtail, giant, (giant foxtail, Setaria faberii), johnsongrass (Sorghum halepense), lambsquarters (Chenopodium album), morningglory (Ipomoea coccinea), nutsedge, yellow (yellow nutsedge, Cyperus esculentus), pigweed (Amaranthus retroflexus), ragweed (common ragweed, Ambrosia elatior), soybean (Glycine max), barnyardgrass (Echinochloa crus-galli), oilseed rape (Brassica napus), waterhemp (common waterhemp, Amaranthus rudis), and velvetleaf (Abutilon theophrasti) were planted into a blend of loam soil and sand and treated preemergence with test chemicals formulated in a non-phytotoxic solvent mixture which included a surfactant. At the same time, plants selected from these crop and weed species and also chickweed (common chickweed, Stellaria media), oat, wild (wild oat, Avena fatua), and kochia (Kochia scoparia), were planted in pots containing Sunshine Redi-Earth® planting medium comprising spaghnum peat moss, vermiculite, starter nutrients and dolomitic limestone and treated with postemergence applications of test chemicals formulated in the same manner. Plants ranged in height from 2 to 18 cm (1- to 4-leaf stage) for postemergence treatments. […] A dash (-) response means no test result.

rice = experiment: Test B flooded paddy test; format: in vivo, Oryza sativa; settings: Oryza sativa, 360 h, applied to paddy water at 2-leaf stage, visual rating after 13 to 15 d, scale 0 (no effect) to 100 (complete control), read-out: Plant response rating, Rice, Flood
Procedure, shortened: (§3)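 Pots were flooded to 3 cm above the soil at treatment, and compounds were applied directly into the paddy water. That depth was held throughout. After 13 to 15 d in a greenhouse, plants were rated visually against untreated controls.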

chickweed = experiment: Test C postemergence; format: in vivo, Stellaria media
Source text: as §2

foxtail, giant = experiment: Test A preemergence; format: in vivo, Setaria faberii; settings: Setaria faberi, pre-emergence, 240 h, 0 to 100 scale (0 no effect, 100 complete control), read-out: Plant response rating, Foxtail, Giant; for pest or weed control at 125 g/ha: 125 g ai/ha; for pest or weed control at 500 g/ha: 500 g ai/ha, approx. 10 d
Procedure, shortened: as §1

barnyardgrass = experiment: Test A postemergence; format: in vivo, Echinochloa crus-galli; settings: Echinochloa crus-galli, post-emergence, 240 h, 0 to 100 scale (0 no effect, 100 complete control), approx. 10 d, read-out: Plant response rating, Barnyardgrass; for pest or weed control at 125 g/ha: 125 g ai/ha; for pest or weed control at 500 g/ha: 500 g ai/ha
Procedure, shortened: as §1

nutsedge, yellow = experiment: Test C postemergence; format: in vivo, Cyperus esculentus
Source text: as §2

ducksalad = experiment: Test B flooded paddy test; format: in vivo, Heteranthera limosa; settings: Heteranthera limosa, 360 h, applied to paddy water at 2-leaf stage, visual rating after 13 to 15 d, scale 0 (no effect) to 100 (complete control), read-out: Plant response rating, Ducksalad, Flood
Procedure, shortened: as §3

morningglory = experiment: Test C postemergence; format: in vivo, Ipomoea coccinea
Source text: as §2

sedge, umbrella = experiment: Test B flooded paddy test; format: in vivo, Cyperus difformis; settings: Cyperus difformis, 360 h, applied to paddy water at 2-leaf stage, visual rating after 13 to 15 d, scale 0 (no effect) to 100 (complete control), read-out: Plant response rating, Sedge, Umbrella, Flood
Procedure, shortened: as §3

ryegrass, Italian = experiment: Test C postemergence; format: in vivo, Lolium multiflorum
Source text: as §2

wheat (winter wheat) = experiment: Test C postemergence; format: in vivo, Triticum aestivum
Source text: as §2

soybean = experiment: Test C postemergence; format: in vivo, Glycine max
Source text: as §2

pigweed = experiment: Test A preemergence; format: in vivo, Amaranthus retroflexus; settings: Amaranthus retroflexus, pre-emergence, 240 h, 0 to 100 scale (0 no effect, 100 complete control), read-out: Plant response rating, Pigweed; for pest or weed control at 125 g/ha: 125 g ai/ha; for pest or weed control at 500 g/ha: 500 g ai/ha, approx. 10 d
Procedure, shortened: as §1

| Structure (SMILES) | Corn plant response rating (crop injury, 0 = no effect, 100 = complete kill) at 125 g/ha (corn) | Corn plant response rating (crop injury, 0 = no effect, 100 = complete kill) at 500 g/ha (corn) | Plant response rating (scale of 0 to 100 where 0 is no effect and 100 is complete control) (oat, wild; 31 g ai/ha) | Plant response rating (scale of 0 to 100 where 0 is no effect and 100 is complete control) (oat, wild; 62 g ai/ha) | Plant response rating (scale of 0 to 100 where 0 is no effect and 100 is complete control) (oat, wild; 125 g ai/ha) | Plant response rating (scale of 0 to 100 where 0 is no effect and 100 is complete control) (oat, wild; 250 g ai/ha) | Plant response rating (scale of 0 to 100 where 0 is no effect and 100 is complete control) (chickweed; 31 g ai/ha) | Plant response rating (scale of 0 to 100 where 0 is no effect and 100 is complete control) (chickweed; 62 g ai/ha) | Plant response rating (scale of 0 to 100 where 0 is no effect and 100 is complete control) (chickweed; 125 g ai/ha) | Plant response rating (scale of 0 to 100 where 0 is no effect and 100 is complete control) (chickweed; 250 g ai/ha) | pest or weed control at 125 g/ha (foxtail, giant) | pest or weed control at 500 g/ha (foxtail, giant) | pest or weed control at 125 g/ha (barnyardgrass) | pest or weed control at 500 g/ha (barnyardgrass) | Plant response rating (scale of 0 to 100 where 0 is no effect and 100 is complete control) (nutsedge, yellow; 31 g ai/ha) | Plant response rating (scale of 0 to 100 where 0 is no effect and 100 is complete control) (nutsedge, yellow; 62 g ai/ha) | Plant response rating (scale of 0 to 100 where 0 is no effect and 100 is complete control) (nutsedge, yellow; 125 g ai/ha) | Plant response rating (scale of 0 to 100 where 0 is no effect and 100 is complete control) (nutsedge, yellow; 250 g ai/ha) | Plant response rating (scale of 0 to 100 where 0 is no effect and 100 is complete control) (morningglory; 31 g ai/ha) | Plant response rating (scale of 0 to 100 where 0 is no effect and 100 is complete control) (morningglory; 62 g ai/ha) | further results |
| --- | --- | --- | --- | --- | --- | --- | --- | --- | --- | --- | --- | --- | --- | --- | --- | --- | --- | --- | --- | --- | --- |
| CCc1nc(-c2ccc(C(F)(F)F)cc2)nn1Cc1ccnc(C(F)(F)F)c1 [Compound 1, 4-[[5-ethyl-3-[4-(trifluoromethyl)phenyl]-1H-1,2,4-triazol-1-yl]methyl]-2-(trifluoromethyl)pyridine] | 30% | 80% | 5 | 10 | 15 | 25 | 60 | 85 | 85 | 95 | 100% | 100% | 80% | 90% | 5 | 5 | 5 | 10 | 60 | 70 | plant injury at 125 g/ha (rice; 125 g ai/ha): 25%; pest or weed control at 125 g/ha (ducksalad; 125 g ai/ha): 20%; Plant response rating (scale of 0 to 100 where 0 is no effect and 100 is complete control) (morningglory; 125 g ai/ha): 70; Plant response rating (scale of 0 to 100 where 0 is no effect and 100 is complete control) (morningglory; 250 g ai/ha): 95; pest or weed control at 125 g/ha (sedge, umbrella; 125 g ai/ha): 75%; Plant response rating (scale of 0 to 100 where 0 is no effect and 100 is complete control) (ryegrass, Italian; 31 g ai/ha): 5; Plant response rating (scale of 0 to 100 where 0 is no effect and 100 is complete control) (ryegrass, Italian; 62 g ai/ha): 5; Plant response rating (scale of 0 to 100 where 0 is no effect and 100 is complete control) (ryegrass, Italian; 125 g ai/ha): 5; Plant response rating (scale of 0 to 100 where 0 is no effect and 100 is complete control) (ryegrass, Italian; 250 g ai/ha): 5; Plant response rating (scale of 0 to 100 where 0 is no effect and 100 is complete control) (wheat (winter wheat); 31 g ai/ha): 10; Plant response rating (scale of 0 to 100 where 0 is no effect and 100 is complete control) (wheat (winter wheat); 62 g ai/ha): 10; Plant response rating (scale of 0 to 100 where 0 is no effect and 100 is complete control) (wheat (winter wheat); 125 g ai/ha): 15; Plant response rating (scale of 0 to 100 where 0 is no effect and 100 is complete control) (wheat (winter wheat); 250 g ai/ha): 20; Plant response rating (scale of 0 to 100 where 0 is no effect and 100 is complete control) (soybean; 31 g ai/ha): 20; Plant response rating (scale of 0 to 100 where 0 is no effect and 100 is complete control) (soybean; 62 g ai/ha): 35; Plant response rating (scale of 0 to 100 where 0 is no effect and 100 is complete control) (soybean; 125 g ai/ha): 50; Plant response rating (scale of 0 to 100 where 0 is no effect and 100 is complete control) (soybean; 250 g ai/ha): 50; pest or weed control at 125 g/ha (pigweed): 100%; pest or weed control at 500 g/ha (pigweed): 100% |
| CCCc1nc(-c2ccc(F)cc2)nn1Cc1ccnc(C(F)(F)F)c1 [Compound 6, 4-[[3-(4-fluorophenyl)-5-propyl-1H-1,2,4-triazol-1-yl]methyl]-2-(trifluoromethyl)pyridine] | 40% | 70% | 5 | 5 | 10 | 10 | 70 | 80 | 85 | 95 | 100% | 100% | 80% | 90% | 5 | 5 | 5 | 5 | 90 | 95 | plant injury at 250 g/ha (rice; 250 g ai/ha): 50%; pest or weed control at 250 g/ha (ducksalad; 250 g ai/ha): 70%; Plant response rating (scale of 0 to 100 where 0 is no effect and 100 is complete control) (morningglory; 125 g ai/ha): 98; pest or weed control at 250 g/ha (sedge, umbrella; 250 g ai/ha): 80%; Plant response rating (scale of 0 to 100 where 0 is no effect and 100 is complete control) (ryegrass, Italian; 31 g ai/ha): 5; Plant response rating (scale of 0 to 100 where 0 is no effect and 100 is complete control) (ryegrass, Italian; 62 g ai/ha): 5; Plant response rating (scale of 0 to 100 where 0 is no effect and 100 is complete control) (ryegrass, Italian; 125 g ai/ha): 5; Plant response rating (scale of 0 to 100 where 0 is no effect and 100 is complete control) (ryegrass, Italian; 250 g ai/ha): 10; Plant response rating (scale of 0 to 100 where 0 is no effect and 100 is complete control) (wheat (winter wheat); 31 g ai/ha): 5; Plant response rating (scale of 0 to 100 where 0 is no effect and 100 is complete control) (wheat (winter wheat); 62 g ai/ha): 10; Plant response rating (scale of 0 to 100 where 0 is no effect and 100 is complete control) (wheat (winter wheat); 125 g ai/ha): 15; Plant response rating (scale of 0 to 100 where 0 is no effect and 100 is complete control) (wheat (winter wheat); 250 g ai/ha): 15; Plant response rating (scale of 0 to 100 where 0 is no effect and 100 is complete control) (soybean; 31 g ai/ha): 35; Plant response rating (scale of 0 to 100 where 0 is no effect and 100 is complete control) (soybean; 62 g ai/ha): 40; Plant response rating (scale of 0 to 100 where 0 is no effect and 100 is complete control) (soybean; 125 g ai/ha): 60; pest or weed control at 125 g/ha (pigweed): 100%; pest or weed control at 500 g/ha (pigweed): 100% |
